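Briefly, cells in 96-well plates were exposed to five compound concentrations for 48 h, and endpoints were estimated by linear interpolation. At the GI50, growth is halved.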 Calls of active or inactive are those of the source. No stated cut-off is given here; in the data, active = GI50 up to about 1.1 µM and inactive = higher.
Tests used:
Assay in all cases: NCI-60 cell line screen, 48 h
[1] = tested on: SNB-78
[2] = tested on: DLD-1
[3] = tested on: M19-MEL
[4] = tested on: KM-20L2
[5] = tested on: RXF 631
[6] = tested on: LXFL 529
[7] = tested on: XF498
[8] = tested on: HOP-18

Measured: GI50

CC(C)CC(CNC(Cc1ccc(Cl)cc1)C(N)=O)NC(=O)C(Cc1c[nH]cn1)NC(=O)CNC(=O)C(NC(=O)C(C)NC(=O)C(Cc1c[nH]c2ccccc12)NC(=O)C(CCC(=O)O)NC(=O)C(N)Cc1ccccc1)C(C)C (configuration not stated)
inactive: [1] > 133 µM | [2] > 133 µM | [3] > 133 µM | [4] > 133 µM | [5] > 133 µM | [6] > 133 µM | [7] > 133 µM

O=C1NC2OC(CO)C(O)C(O1)C2O (configuration not stated)
inactive: [8] > 100 µM | [1] > 100 µM | [2] > 100 µM | [3] > 100 µM | [4] > 100 µM | [6] > 100 µM | [7] > 100 µM

CCOC(=O)c1c(/C=N\Nc2ccccc2)nc2ccccc2c1-c1ccccc1
inactive: [8] 31 µM | [1] 51.1 µM | [3] 26.8 µM | [4] 38.5 µM | [5] 41.2 µM | [6] 27.2 µM

O=CN1CCN(C=S)CC1
inactive: [1] > 100 µM | [2] > 100 µM | [3] > 100 µM | [4] > 100 µM | [5] > 100 µM | [6] > 100 µM | [7] > 100 µM

O=c1c2ccccc2[nH]c(=S)n1-c1ccc(Br)cc1
inactive: [8] > 100 µM | [1] > 100 µM | [2] 49.7 µM | [3] 74.8 µM | [4] 63.4 µM | [6] 37.3 µM | [7] > 100 µM

N#CCCN(c1ccc(/C=C2\N=C(c3ccc(Cl)cc3)OC2=O)cc1)S(=O)(=O)c1ccccc1
inactive: [2] > 100 µM | [3] > 100 µM | [4] > 100 µM | [5] > 100 µM | [6] > 100 µM | [7] > 100 µM

NC(N)NCCCc1cn2c(n1)C1CCCN1C(=O)C2Cc1ccccc1 (configuration not stated)
inactive: [1] > 100 µM | [2] > 100 µM | [3] > 100 µM | [4] > 100 µM | [5] > 100 µM | [6] > 100 µM | [7] > 100 µM

O=C1CCC(=O)N2CCCCN12
inactive: [8] > 100 µM | [1] > 100 µM | [2] > 100 µM | [3] > 100 µM | [4] > 100 µM | [5] > 100 µM | [6] > 100 µM

C/C(CC(=O)Nc1ccc([N+](=O)[O-])cc1)=N\NC(N)=O
inactive: [8] > 100 µM | [1] > 100 µM | [2] > 77.8 µM | [3] > 100 µM | [4] > 64.9 µM | [6] > 80.2 µM | [7] > 100 µM

C[n+]1ccc(Nc2ccc(NC(=O)c3ccc(Nc4cc[n+](C)c5ccc([N+](=O)[O-])cc45)cc3[N+](=O)[O-])cc2)cc1
inactive: [8] 20.5 µM | [2] > 86.7 µM | [3] 18.3 µM | [4] > 100 µM | [6] 15.8 µM | [7] 33.5 µM

COC(=O)C1C(C(=O)OC)C2(OC)c3ccccc3-c3ccccc3C12 (configuration not stated)
inactive: [8] 55.1 µM | [2] 33.3 µM | [3] 33 µM | [4] 26.2 µM | [5] 54.8 µM | [6] 44.1 µM

Cc1ccccc1C1CC(c2ccccc2)=NO1 (configuration not stated)
inactive: [8] > 100 µM | [1] > 100 µM | [2] > 100 µM | [4] > 100 µM | [5] > 100 µM | [6] > 100 µM

CS(=O)(=O)Oc1cccc(/C=N/N=C(\N)NO)c1
inactive: [8] 69.8 µM | [1] > 100 µM | [2] 24.9 µM | [3] 42.5 µM | [6] 19.2 µM | [7] 10.7 µM

CCC1C(C(=O)Nc2ccccc2C)=C(C)NC(C)=C1c1ccccc1C (configuration not stated)
inactive: [8] > 60.8 µM | [1] > 100 µM | [2] > 39.7 µM | [3] > 80.4 µM | [4] > 92.3 µM | [6] > 100 µM | [7] > 100 µM

From ChEMBL document CHEMBL1201862, “PubChem BioAssay data set” (2004)
